We go through two compounds from patent US7029713B2, “Peptide extract of lupine and pharmaceutical or cosmetic or nutritional composition comprising the same” (Laboratoires Pharmascience, priority 1999, dated 2006).

One may read the inhibition as the share of the control response that was lost under treatment.

Test [1] relates to MMP-9 in human fibroblasts irradiated with UVA rays. The test can be described thus: Amount of MMP-9 secreted by UVA-irradiated human dermal fibroblasts (ELISA). Format: cell-based. Particulars: Fibroblast, light or radiation study, 80 μg/ml, read-out: inhibition of the secretion of MMP-9 by the irradiated fibroblasts. Here is the method:
(§1) The study was carried out on human dermal fibroblasts in monolayer culture. The cells were pre-incubated for 1 hour at 37° C. in the presence of the reference products and of the test product. Then, the cells were irradiated with a single dose of 10 J/cm^2 of UVA, in the presence of the product to be tested and of the reference products.
(§2) Immediately after irradiation, the cells were incubated for 48 h at 37° C., still in the presence of the product to be tested and of the reference products.
(§3) The various MMPs are tested in the culture media using specific ELISA kits (Amersham).
(§4) 1,10-Phenanthroline, which is a nonspecific inhibitor of MMPs, and was tested at 80 μg/ml, was used as a reference product.
(§5) A 10 μg/ml retinoic acid+10 ng/ml EGF mixture was used for its abilities to induce TIMP1 (TIMP1, Tissue Inhibitor of MMP, physiological inhibitor of MMPs).
(§6) A stock solution containing 10% (w/v) of lupin peptides was prepared in deionized water. Using this solution, dilutions were prepared in the fibroblast culture medium. The peptide extract of lupin was tested at 0.5; 1 and 2% (v/v).
(§7) Irradiated and nonirradiated control cultures were incubated in parallel, in the absence of the reference products and of the test product. […]
(§8) They are given in the table below and the results are expressed as % relative to the “irradiated cells” group.

The target in a further test is T1, recombinant human MMP-9 (Homo sapiens, UniProt P14780).
T1 construct: purchased R&D SYSTEMS
T1 sequence (P14780 94-707): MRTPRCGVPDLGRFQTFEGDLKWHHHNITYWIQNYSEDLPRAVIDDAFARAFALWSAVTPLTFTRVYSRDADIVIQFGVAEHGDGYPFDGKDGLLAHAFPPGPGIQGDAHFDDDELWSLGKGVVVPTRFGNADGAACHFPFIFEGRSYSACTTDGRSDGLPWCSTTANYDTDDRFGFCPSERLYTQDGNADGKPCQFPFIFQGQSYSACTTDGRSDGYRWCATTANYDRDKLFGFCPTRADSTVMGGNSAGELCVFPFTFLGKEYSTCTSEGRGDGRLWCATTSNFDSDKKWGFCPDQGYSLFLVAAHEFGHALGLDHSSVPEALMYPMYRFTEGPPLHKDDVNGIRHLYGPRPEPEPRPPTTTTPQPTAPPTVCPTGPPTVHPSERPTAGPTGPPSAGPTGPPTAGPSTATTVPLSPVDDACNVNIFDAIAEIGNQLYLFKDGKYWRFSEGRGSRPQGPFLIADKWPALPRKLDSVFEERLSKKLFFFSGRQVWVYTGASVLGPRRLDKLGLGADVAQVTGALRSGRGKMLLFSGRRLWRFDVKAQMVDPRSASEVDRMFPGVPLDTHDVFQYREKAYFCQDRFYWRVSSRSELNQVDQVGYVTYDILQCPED
The test can be described thus: Anti-MMP-9 activity, DQ-gelatin fluorimetry. Format: biochemical. As to the method:
(§9) The anti-MMP-2 and anti-MMP-9 activity of the test products was measured in vitro in a biochemical model of the screening type, based on the use of a purified human MMP-2 and of a recombinant human MMP-9 and of the substrate for the latter, gelatin conjugated to fluorescein (EnzChek™ gelatinase/collagenase kit, MOLECULAR PROBES).
The recombinant human MMP-9 came from R&D SYSTEMS.
(§10) The DQ-gelatin purified from porcine skin and conjugated to fluorescein was supplied in the EnzChek™ gelatinase/collagenase kit (MOLECULAR PROBES).
The reaction buffer for studying the activity of MMP-9 (RBf2) consisted of 50 mM of Tris-HCl, 0.05% (w/v) of Brij 35 and 5 mM of CaCl2, pH 7.4.
(§11) 1,10-Phenanthroline was solubilized in the reaction buffers RBf1 and RBf2. It was tested at 8 and 80 μg/ml.
(§12) Peptide extracts A, B and C were solubilized in the reaction buffers RBf1 and RBf2. They were tested at 0.01; 0.1 and 1% (w/v). […]
(§13) After 24 hours, the signal corresponding to the degradation of the DQ-gelatin was measured by fluorimetry (excitation: 485 nm and emission: 595 nm) For each sample, the value obtained for the “samples without enzyme” was subtracted.
(§14) The results were expressed as fluorescence units per sample and as percentage variation relative to the control group. […]

The test system of test [2] is MMP-1 in human fibroblasts irradiated with UVA rays. The test can be described thus: Amount of MMP-1 secreted by UVA-irradiated human dermal fibroblasts (ELISA). Format: cell-based. The following applies: Fibroblast, light or radiation study, 80 μg/ml, read-out: inhibition of the secretion of MMP-1 by the irradiated fibroblasts. As to the method: as §1, §2, §3, §4, §5, §6, §7, §8

The subject of test [3] is MMP-3 in human fibroblasts irradiated with UVA rays. The test can be described thus: Amount of MMP-3 secreted by UVA-irradiated human dermal fibroblasts (ELISA). The following applies: Fibroblast, light or radiation study, 80 μg/ml, read-out: inhibition of the secretion of MMP-3 by the irradiated fibroblasts. The test is classed as cell-based. As to the method:
as §1, §2, §3, §4, §5, §6, §7, §8
On the technique in general: In an ELISA, binding on a coated surface is turned into a signal by an enzyme label.

The next test deals with T2, purified human MMP-2 (Homo sapiens, UniProt P08253).
T2 construct: purchased BOEHRINGER MANNHEIM; host or cells: purified from human fibrosarcoma (natural, not recombinant)
T2 sequence (P08253 110-660): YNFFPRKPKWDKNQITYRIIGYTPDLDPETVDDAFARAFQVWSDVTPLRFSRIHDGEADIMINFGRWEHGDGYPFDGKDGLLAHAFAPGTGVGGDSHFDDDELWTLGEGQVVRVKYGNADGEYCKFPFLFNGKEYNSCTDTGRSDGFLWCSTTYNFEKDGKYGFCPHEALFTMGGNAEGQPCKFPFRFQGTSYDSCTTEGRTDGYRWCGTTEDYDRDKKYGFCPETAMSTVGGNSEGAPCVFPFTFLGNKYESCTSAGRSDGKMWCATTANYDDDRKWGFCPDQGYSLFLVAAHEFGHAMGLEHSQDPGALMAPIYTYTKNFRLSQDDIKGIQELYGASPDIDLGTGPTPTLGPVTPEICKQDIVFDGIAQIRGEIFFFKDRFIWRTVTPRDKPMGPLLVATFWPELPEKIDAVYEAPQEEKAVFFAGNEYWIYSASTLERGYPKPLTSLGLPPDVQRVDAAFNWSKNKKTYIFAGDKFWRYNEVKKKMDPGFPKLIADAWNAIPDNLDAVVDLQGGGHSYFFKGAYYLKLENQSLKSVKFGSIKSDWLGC
The test can be described thus: Anti-MMP-2 activity, DQ-gelatin fluorimetry. Format: biochemical. As to the method:
as §9
The MMP-2 purified from human fibrosarcoma came from BOEHRINGER MANNHEIM.
as §10
The reaction buffer for studying the activity of MMP-2 (RBf1) consisted of 50 mM of Tris-HCl, 0.05% (w/v) of Triton X100 and 5 mM of CaCl2, pH 7.5.
as §11, §12, §13, §14

Test [4] has as its system purified collagenase (type III, fraction A). The test can be described thus: Anticollagenase activity in organotypic model of human skin sections (Masson trichrome, morphology and image analysis). The test is classed as biochemical. Particulars: phosphoramidon 10^−3 M; collagenase 50 IU/ml, 3 hours 37° C. Details: key to Enzymatic digestion (morphological observation): 0: zero enzymatic digestion; +: weak enzymatic digestion; ++: average enzymatic digestion; +++: strong enzymatic digestion. Here is the method: The anticollagenase activity of a test product can be studied in vitro in an organotypic model of human skin. The principle of the test is as follows: application of purified collagenase to sections is accompanied by degradation of the endogenous collagen fibers. The collagen fibers are then stained with Masson trichrome. The digestion of the endogenous collagen fibers by the purified collagenase is evaluated qualitatively by morphological observation and quantitatively by image analysis. A product which has anticollagenase activity will partially or totally preserve the integrity of the collagen fibers placed in the presence of the enzyme.
Three dilutions were tested: 0.01; 0.1 and 1% (v/v). […]
After incubation, the sections were rinsed with the incubation medium and stained with Masson trichrome. The activity of the enzyme in the presence and absence of the extract, of the ethanol or of the reference product was evaluated by microscopic observation and scored according to the following scheme:
The activity of the collagenase in the presence and absence of the test products, of the ethanol or of the reference product was evaluated by image analysis. […] The results were expressed as a percentage of intact collagen fibers per optical field. […]
For the reference product (directly taken up in the vehicle), the percentage inhibition is calculated using the following formula: […]

With `c1cnc2c(c1)ccc1cccnc12` [1,10-phenanthroline], the inhibition at 80 µg/mL turned out to be 92% in test [1]; 76% on recombinant human MMP-9 (80 μg/ml); 99% in test [2]; 97% in test [3]; 73% at purified human MMP-2 (80 μg/ml). The inhibition at 8 µg/mL at recombinant human MMP-9 (8 μg/ml) came out at 80%; on purified human MMP-2 (8 μg/ml), 32%.
Take `CC(C)C[C@H](NP(=O)(O)O[C@@H]1O[C@@H](C)[C@H](O)[C@@H](O)[C@H]1O)C(=O)N[C@@H](Cc1c[nH]c2ccccc12)C(=O)O` [Phosphoramidon]: in test [4], the “% inhibition of the collagenase activity (image analysis)” value came out at 16% and the “Enzymatic digestion (morphological observation)” value is “+”.
